Counter-ions that a name gives are not always drawn.
How the values were obtained:
apomorphine climbing = test: climbing mice assay (antipsychotic activity, apomorphine-induced climbing); type: in vivo, mice (CK-1 male); details: Mus musculus, po, apomorphine 1.5 mg/kg sc challenge
Method: Antipsychotic activity is determined in the climbing mice assay by a method similar to those described by P. Protais, et al., Psychopharmacol., 50, 1 (1976) and B. Costall, Eur. J. Pharmacol., 50, 39 (1978).
The subject CK-1 male mice (23-27 grams) are group-housed under standard laboratory conditions. The mice are individually placed in wire mesh stick cages (4"×4"×10") and are allowed one hour for adaptation and exploration of the new environment. Then apomorphine is injected subcutaneously at 1.5 mg/kg, a dose causing climbing in all subjects for 30 minutes. Compounds to be tested for antipsychotic activity are injected intraperitoneally or given oral doses at various time intervals, e.g. 30 minutes, 60 minutes, etc. prior to the apomorphine challenge at a screening dose of 10-60 mg/kg.
For evaluation of climbing, 3 readings are taken at 10, 20 and 30 minutes after apomorphine administration according to the following scale:
4 paws on bottom (no climbing)
2 paws on the wall (rearing)
4 paws on the wall (full climb)
Mice consistently climbing before the injection of apomorphine will be discarded.
With full-developed apomorphine climbing, the animals are hanging on to the cage walls, rather motionless, over longer periods of time. By contrast, climbs due to mere motor stimulation usually only last a few seconds.
The climbing scores are individually totaled (maximal score: 6 per mouse over 3 readings) and the total score of the control group (vehicle intraperitoneally--apomorphine subcutaneously) is set to 100%. ED50 values with 95% confidence limits, calculated by a Linear Regression Analysis, of some of the instant benzopyrrolobenzodiazepines as well as a standard antipsychotic agent are presented in Table 1.

[1] = tested on: phenylquinone induced writhing; test: phenyl-p-quinone writhing assay in mice (analgesia); type: in vivo; details: Mus musculus, sc, dose for approximately 50% inhibition of writhing
Text: Some of the benzopyrrolobenzodiazepines and quinobenzodiazepines of the present invention are also useful as analgetics due to their ability to alleviate pain in mammals. […] Exptl. Biol Med., 95 729 (1957)]. Thus, for instance, the subcutaneous dose effecting an approximately 50% inhibition of writhing (ED50) in mice produced in this assay is as shown in Table 2.

| Compound | ED50 (apomorphine climbing) [mg/kg] | ED50 [1] [mg/kg] |
| --- | --- | --- |
| CN1CCN(C2=Nc3ccccc3-n3ccc4cc(Cl)cc2c43)CC1 [4-Chloro-6-(4-methyl-1-piperazinyl)benzo[b]pyrrolo[3,2,1-jk][1,4]benzodiazepine] | 13.4 | – |
| CN1CCN(C2=Nc3cc(Br)ccc3N3CCc4cccc2c43)CC1 [9-Bromo-6-(4-methyl-1-piperazinyl)-1,2-dihydrobenzo[b]pyrrolo[3,2,1-jk][1,4]benzodiazepine] | 30.8 | – |
| CN1CCN(C2=Nc3cc(Br)ccc3-n3ccc4cccc2c43)CC1 [9-Bromo-6-(4-methyl-1-piperazinyl)benzo[b]pyrrolo[3,2,1-jk][1,4]benzodiazepine] | 13.5 | 0.72 |
| CN(C)CCN(C)C1=Nc2cc(Br)ccc2N2CCc3cccc1c32 [9-Bromo-6-[(2-dimethylamino)-N-methylethylamino]-1,2-dihydrobenzo[b]pyrrolo[3,2,1-jk][1,4]benzodiazepine Dimaleate salt] | – | 8.1 |
| Cc1ccc2c(c1)N=C(N1CCN(C)CC1)c1cccc3c1N2CC3 [9-Methyl-6-(4-methyl-1-piperazinyl)-1,2-dihydrobenzo[b]pyrrolo[3,2,1-jk][1,4]benzodiazepine] | 25.5 | 0.34 |
| CN1CCN(C2=Nc3cc(Cl)ccc3N3CCc4cccc2c43)CC1 [9-chloro-6-(4-methyl-1-piperazinyl)-1,2-dihydrobenzo[b]pyrrolo[3,2,1-jk][1,4]benzodiazepine] | – | 4.1 |
| CN1CCN(C2=Nc3cc(Cl)ccc3Nc3ccccc32)CC1 [clozapine, reference compound] | 23.2 | – |
| CCC(=O)O[C@](Cc1ccccc1)(c1ccccc1)[C@H](C)CN(C)C [propoxyphene, reference compound] | – | 3.9 |

From patent US4663453A, “Benzo[b]pyrrolo[3,2,1-jk][1,4]benzodiazepines having dopamine receptor activity” (Hoechst-Roussel Pharmaceuticals Inc., priority 1985, dated 1987)
